Laboratory results taken from ChEMBL document CHEMBL4507272 (2021).

What was measured:
[1] = target: LIM domain kinase 2 (Homo sapiens) (UniProt P53671); settings: Compound concentration 1000.0 nM
[2] = target: MAP kinase-interacting serine/threonine-protein kinase 2 (Homo sapiens) (UniProt Q9HBH9); settings: Compound concentration 1000.0 nM
[3] = target: Activin receptor type-2A (Homo sapiens) (UniProt P27037); settings: Compound concentration 1000.0 nM
[4] = target: GABA-A receptor; anion channel (Rattus norvegicus) (UniProt O09028+P15431+P18506+P18508+P19969+P20236+P23574+P23576+P28471+P28473+P30191+P62813+P63079+P63138+Q91ZM7+Q9ES14); settings: Compound concentration 10.0 uM
[5] = target: Inhibitor of nuclear factor kappa-B kinase subunit epsilon (Homo sapiens) (UniProt Q14164); settings: Compound concentration 1000.0 nM
[6] = tested on: Mast/stem cell growth factor receptor Kit (Homo sapiens), P10721 [V559D,T670I]; settings: Compound concentration 1000.0 nM
[7] = target: Inhibitor of nuclear factor kappa-B kinase subunit alpha (Homo sapiens) (UniProt O15111); settings: Compound concentration 1000.0 nM
Sequence of Inhibitor of nuclear factor kappa-B kinase subunit alpha (Homo sapiens) (O15111 whole entry): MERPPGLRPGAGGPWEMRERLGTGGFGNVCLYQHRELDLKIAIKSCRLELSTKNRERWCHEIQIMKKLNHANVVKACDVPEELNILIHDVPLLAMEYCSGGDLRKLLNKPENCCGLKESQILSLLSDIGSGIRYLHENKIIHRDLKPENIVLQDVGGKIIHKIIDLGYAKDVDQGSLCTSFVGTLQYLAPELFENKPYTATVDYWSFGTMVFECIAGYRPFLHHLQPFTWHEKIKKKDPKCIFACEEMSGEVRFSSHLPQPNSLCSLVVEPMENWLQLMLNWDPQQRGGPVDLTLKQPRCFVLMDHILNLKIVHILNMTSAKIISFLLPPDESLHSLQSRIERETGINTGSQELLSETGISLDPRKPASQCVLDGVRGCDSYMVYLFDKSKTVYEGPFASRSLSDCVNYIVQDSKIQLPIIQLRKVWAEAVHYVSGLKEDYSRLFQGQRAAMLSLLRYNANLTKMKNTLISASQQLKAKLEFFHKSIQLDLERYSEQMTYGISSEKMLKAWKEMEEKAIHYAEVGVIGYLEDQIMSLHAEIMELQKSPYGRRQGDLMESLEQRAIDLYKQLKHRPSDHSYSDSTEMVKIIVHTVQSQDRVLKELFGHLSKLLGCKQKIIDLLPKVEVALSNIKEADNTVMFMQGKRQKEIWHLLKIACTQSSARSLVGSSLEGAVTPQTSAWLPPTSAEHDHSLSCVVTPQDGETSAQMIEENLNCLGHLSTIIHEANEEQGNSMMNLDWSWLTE

[8] = target: Tyrosine-protein kinase FRK (Homo sapiens) (UniProt P42685); settings: Compound concentration 1000.0 nM
[9] = target: 5-hydroxytryptamine receptor 1E (Homo sapiens) (UniProt P28566); settings: Compound concentration 10.0 uM
[10] = target: Cyclin-dependent kinase 2 (Homo sapiens) (UniProt P24941); settings: Compound concentration 1000.0 nM
[11] = target: Proto-oncogene tyrosine-protein kinase receptor Ret (Homo sapiens) (UniProt P07949); settings: Compound concentration 1000.0 nM
[12] = target: Phosphatidylinositol 3-kinase C2 domain-containing subunit gamma (Homo sapiens) (UniProt O75747); settings: Compound concentration 1000.0 nM
[13] = tested on: Phosphatidylinositol 4,5-bisphosphate 3-kinase catalytic subunit alpha isoform (Homo sapiens), P42336 [E545K]; settings: Compound concentration 1000.0 nM
[14] = target: Tyrosine-protein kinase TXK (Homo sapiens) (UniProt P42681); settings: Compound concentration 1000.0 nM
Sequence of Tyrosine-protein kinase TXK (Homo sapiens) (P42681 whole entry): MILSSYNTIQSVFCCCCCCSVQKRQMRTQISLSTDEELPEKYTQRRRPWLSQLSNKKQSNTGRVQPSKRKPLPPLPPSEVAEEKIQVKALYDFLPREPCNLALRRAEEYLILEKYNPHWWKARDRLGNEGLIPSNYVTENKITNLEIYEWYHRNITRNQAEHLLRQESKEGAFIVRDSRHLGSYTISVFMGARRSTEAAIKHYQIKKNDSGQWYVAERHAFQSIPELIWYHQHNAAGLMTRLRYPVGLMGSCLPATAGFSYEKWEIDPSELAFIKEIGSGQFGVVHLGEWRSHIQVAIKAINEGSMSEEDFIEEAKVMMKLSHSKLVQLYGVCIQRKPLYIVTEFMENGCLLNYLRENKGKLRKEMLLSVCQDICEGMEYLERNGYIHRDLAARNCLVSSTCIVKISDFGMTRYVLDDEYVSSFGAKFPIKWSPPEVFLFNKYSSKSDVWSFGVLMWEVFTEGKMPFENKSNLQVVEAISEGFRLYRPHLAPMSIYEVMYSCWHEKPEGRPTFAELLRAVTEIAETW

[15] = target: 5'-AMP-activated protein kinase catalytic subunit alpha-2 (Homo sapiens) (UniProt P54646); settings: Compound concentration 1000.0 nM
Sequence of 5'-AMP-activated protein kinase catalytic subunit alpha-2 (Homo sapiens) (P54646 whole entry, looked up): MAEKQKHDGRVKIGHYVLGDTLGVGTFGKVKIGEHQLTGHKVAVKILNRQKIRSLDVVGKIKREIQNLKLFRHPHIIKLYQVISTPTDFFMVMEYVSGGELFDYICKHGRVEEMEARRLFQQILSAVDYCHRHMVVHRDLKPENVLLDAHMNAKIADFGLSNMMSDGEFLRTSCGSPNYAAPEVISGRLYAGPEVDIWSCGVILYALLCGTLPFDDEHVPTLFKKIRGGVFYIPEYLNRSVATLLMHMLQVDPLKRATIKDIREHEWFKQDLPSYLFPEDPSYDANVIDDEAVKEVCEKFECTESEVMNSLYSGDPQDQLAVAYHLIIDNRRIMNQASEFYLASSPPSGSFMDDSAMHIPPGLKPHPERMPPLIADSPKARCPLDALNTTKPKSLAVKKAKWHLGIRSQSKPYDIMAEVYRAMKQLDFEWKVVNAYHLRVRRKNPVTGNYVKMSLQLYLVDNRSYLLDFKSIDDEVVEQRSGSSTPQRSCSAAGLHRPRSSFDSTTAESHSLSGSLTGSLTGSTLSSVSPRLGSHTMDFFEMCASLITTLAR

[16] = target: Serine/threonine-protein kinase TAO1 (Homo sapiens) (UniProt Q7L7X3); settings: Compound concentration 1000.0 nM
[17] = target: SRSF protein kinase 3 (Homo sapiens) (UniProt Q9UPE1); settings: Compound concentration 1000.0 nM
[18] = target: Mitogen-activated protein kinase kinase kinase 2 (Homo sapiens) (UniProt Q9Y2U5); settings: Compound concentration 1000.0 nM
[19] = target: cAMP-dependent protein kinase catalytic subunit PRKX (Homo sapiens) (UniProt P51817); settings: Compound concentration 1000.0 nM
[20] = target: Misshapen-like kinase 1 (Homo sapiens) (UniProt Q8N4C8); settings: Compound concentration 1000.0 nM
[21] = target: Serine/threonine-protein kinase PAK 1 (Homo sapiens) (UniProt Q13153); settings: Compound concentration 1000.0 nM
[22] = target: SNF-related serine/threonine-protein kinase (Homo sapiens) (UniProt Q9NRH2); settings: Compound concentration 1000.0 nM
[23] = target: Tyrosine-protein kinase CSK (Homo sapiens) (UniProt P41240); settings: Compound concentration 1000.0 nM
Sequence of Tyrosine-protein kinase CSK (Homo sapiens) (P41240 2-450 limits assumed): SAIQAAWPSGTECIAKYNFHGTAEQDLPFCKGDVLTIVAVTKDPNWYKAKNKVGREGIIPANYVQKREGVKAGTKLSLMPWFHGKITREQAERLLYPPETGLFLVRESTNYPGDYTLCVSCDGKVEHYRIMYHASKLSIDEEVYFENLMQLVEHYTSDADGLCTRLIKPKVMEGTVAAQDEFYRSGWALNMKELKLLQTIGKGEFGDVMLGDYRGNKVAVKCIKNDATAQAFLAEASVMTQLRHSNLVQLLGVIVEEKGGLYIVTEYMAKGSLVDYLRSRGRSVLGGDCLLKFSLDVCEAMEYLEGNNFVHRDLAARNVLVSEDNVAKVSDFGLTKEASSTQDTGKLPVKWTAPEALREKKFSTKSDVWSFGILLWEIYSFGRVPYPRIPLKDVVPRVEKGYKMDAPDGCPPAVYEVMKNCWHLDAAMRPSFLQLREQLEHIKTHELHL

[24] = target: Serine/threonine-protein kinase B-raf (Homo sapiens) (UniProt P15056); settings: Compound concentration 1000.0 nM
[25] = target: Dual specificity mitogen-activated protein kinase kinase 6 (Homo sapiens) (UniProt P52564); settings: Compound concentration 1000.0 nM
Sequence of Dual specificity mitogen-activated protein kinase kinase 6 (Homo sapiens) (P52564 whole entry, canonical isoform): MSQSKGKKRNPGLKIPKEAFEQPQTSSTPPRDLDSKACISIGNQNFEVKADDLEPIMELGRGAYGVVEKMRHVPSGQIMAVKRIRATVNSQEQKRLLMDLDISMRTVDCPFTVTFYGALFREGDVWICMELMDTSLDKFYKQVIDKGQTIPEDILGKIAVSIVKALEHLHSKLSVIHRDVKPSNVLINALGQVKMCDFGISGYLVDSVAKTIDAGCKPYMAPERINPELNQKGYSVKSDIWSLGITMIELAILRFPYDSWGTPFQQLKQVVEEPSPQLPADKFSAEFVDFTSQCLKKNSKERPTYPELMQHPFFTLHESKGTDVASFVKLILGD

[26] = tested on: Phosphatidylinositol 4,5-bisphosphate 3-kinase catalytic subunit alpha isoform (Homo sapiens), P42336 [C420R]; settings: Compound concentration 1000.0 nM
[27] = target: Activin receptor type-1 (Homo sapiens) (UniProt Q04771); settings: Compound concentration 1000.0 nM
[28] = target: Mitogen-activated protein kinase kinase kinase kinase 5 (Homo sapiens) (UniProt Q9Y4K4); settings: Compound concentration 1000.0 nM
[29] = target: Activin receptor type-2B (Homo sapiens) (UniProt Q13705); settings: Compound concentration 1000.0 nM
[30] = target: RAF proto-oncogene serine/threonine-protein kinase (Homo sapiens) (UniProt P04049); settings: Compound concentration 1000.0 nM
[31] = target: Alpha-2A adrenergic receptor (Homo sapiens) (UniProt P08913); settings: Compound concentration 10.0 uM
[32] = target: Serine/threonine-protein kinase PAK 4 (Homo sapiens) (UniProt O96013); settings: Compound concentration 1000.0 nM
[33] = tested on: Mast/stem cell growth factor receptor Kit (Homo sapiens), P10721 [D816H]; settings: Compound concentration 1000.0 nM
[34] = target: Casein kinase I isoform alpha-like (Homo sapiens) (UniProt Q8N752); settings: Compound concentration 1000.0 nM
[35] = target: Tyrosine-protein kinase Fes/Fps (Homo sapiens) (UniProt P07332); settings: Compound concentration 1000.0 nM
Sequence of Tyrosine-protein kinase Fes/Fps (Homo sapiens) (P07332 whole entry): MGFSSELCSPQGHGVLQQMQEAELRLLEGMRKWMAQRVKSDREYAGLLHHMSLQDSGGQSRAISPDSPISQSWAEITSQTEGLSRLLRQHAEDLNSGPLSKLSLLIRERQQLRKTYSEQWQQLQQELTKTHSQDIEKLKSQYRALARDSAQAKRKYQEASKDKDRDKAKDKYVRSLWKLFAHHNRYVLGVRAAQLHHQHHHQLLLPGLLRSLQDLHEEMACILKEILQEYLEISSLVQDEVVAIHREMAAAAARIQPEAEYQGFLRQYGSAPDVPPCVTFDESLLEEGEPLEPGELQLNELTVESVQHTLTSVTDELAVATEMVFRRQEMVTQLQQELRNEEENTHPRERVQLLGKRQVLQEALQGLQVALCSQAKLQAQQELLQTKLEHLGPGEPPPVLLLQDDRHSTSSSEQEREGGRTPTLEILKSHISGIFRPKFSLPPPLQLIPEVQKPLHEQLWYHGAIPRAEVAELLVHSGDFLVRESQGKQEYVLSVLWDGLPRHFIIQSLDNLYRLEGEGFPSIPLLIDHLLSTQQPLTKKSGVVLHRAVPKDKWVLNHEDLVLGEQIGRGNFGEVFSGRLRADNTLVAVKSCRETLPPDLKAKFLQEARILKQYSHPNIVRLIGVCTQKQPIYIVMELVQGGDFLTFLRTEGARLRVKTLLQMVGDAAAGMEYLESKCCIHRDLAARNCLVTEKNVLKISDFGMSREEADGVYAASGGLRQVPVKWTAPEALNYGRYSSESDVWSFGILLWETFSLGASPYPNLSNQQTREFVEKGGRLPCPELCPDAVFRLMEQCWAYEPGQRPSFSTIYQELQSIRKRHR

[36] = tested on: Epidermal growth factor receptor (Homo sapiens), P00533 [G719S]; settings: Compound concentration 1000.0 nM
[37] = target: Mitogen-activated protein kinase kinase kinase 14 (Homo sapiens) (UniProt Q99558); settings: Compound concentration 1000.0 nM
[38] = target: Ribosomal protein S6 kinase alpha-1 (Homo sapiens) (UniProt Q15418); settings: Compound concentration 1000.0 nM
[39] = target: Wee1-like protein kinase (Homo sapiens) (UniProt P30291); settings: Compound concentration 1000.0 nM
[40] = target: Serine/threonine-protein kinase D2 (Homo sapiens) (UniProt Q9BZL6); settings: Compound concentration 1000.0 nM
[41] = target: Serine/threonine-protein kinase BRSK2 (Homo sapiens) (UniProt Q8IWQ3); settings: Compound concentration 1000.0 nM
[42] = target: Ephrin type-A receptor 3 (Homo sapiens) (UniProt P29320); settings: Compound concentration 1000.0 nM
Sequence of Ephrin type-A receptor 3 (Homo sapiens) (P29320 whole entry): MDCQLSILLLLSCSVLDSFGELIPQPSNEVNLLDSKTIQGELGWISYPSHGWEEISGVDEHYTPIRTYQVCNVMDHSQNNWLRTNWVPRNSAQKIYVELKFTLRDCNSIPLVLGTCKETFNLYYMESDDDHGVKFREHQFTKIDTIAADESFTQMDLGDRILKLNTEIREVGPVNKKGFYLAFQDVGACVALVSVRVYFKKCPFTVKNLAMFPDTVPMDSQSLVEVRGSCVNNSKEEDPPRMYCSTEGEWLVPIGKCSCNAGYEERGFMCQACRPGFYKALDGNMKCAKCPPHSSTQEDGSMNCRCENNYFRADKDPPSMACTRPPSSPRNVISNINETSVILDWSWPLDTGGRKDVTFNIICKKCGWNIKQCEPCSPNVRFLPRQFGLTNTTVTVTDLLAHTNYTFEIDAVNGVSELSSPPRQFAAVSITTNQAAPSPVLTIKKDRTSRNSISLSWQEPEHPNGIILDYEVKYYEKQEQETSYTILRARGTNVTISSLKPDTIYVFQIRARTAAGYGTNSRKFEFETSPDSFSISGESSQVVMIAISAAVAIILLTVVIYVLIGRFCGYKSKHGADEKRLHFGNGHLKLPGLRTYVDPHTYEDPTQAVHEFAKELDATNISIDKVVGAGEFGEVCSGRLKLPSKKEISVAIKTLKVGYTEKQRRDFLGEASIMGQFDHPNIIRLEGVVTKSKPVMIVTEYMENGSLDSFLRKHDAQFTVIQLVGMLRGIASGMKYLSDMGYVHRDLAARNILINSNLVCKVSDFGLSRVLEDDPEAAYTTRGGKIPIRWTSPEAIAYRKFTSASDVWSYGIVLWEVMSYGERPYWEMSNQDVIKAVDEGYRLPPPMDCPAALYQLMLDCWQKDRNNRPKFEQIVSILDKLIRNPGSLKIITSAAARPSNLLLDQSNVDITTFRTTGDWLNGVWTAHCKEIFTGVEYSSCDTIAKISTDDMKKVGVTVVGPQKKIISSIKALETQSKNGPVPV

[43] = tested on: Mast/stem cell growth factor receptor Kit (Homo sapiens), P10721 [L576P]; settings: Compound concentration 1000.0 nM

Sequence of LIM domain kinase 2 (Homo sapiens) (P53671 whole entry, looked up, the tested form may be a part): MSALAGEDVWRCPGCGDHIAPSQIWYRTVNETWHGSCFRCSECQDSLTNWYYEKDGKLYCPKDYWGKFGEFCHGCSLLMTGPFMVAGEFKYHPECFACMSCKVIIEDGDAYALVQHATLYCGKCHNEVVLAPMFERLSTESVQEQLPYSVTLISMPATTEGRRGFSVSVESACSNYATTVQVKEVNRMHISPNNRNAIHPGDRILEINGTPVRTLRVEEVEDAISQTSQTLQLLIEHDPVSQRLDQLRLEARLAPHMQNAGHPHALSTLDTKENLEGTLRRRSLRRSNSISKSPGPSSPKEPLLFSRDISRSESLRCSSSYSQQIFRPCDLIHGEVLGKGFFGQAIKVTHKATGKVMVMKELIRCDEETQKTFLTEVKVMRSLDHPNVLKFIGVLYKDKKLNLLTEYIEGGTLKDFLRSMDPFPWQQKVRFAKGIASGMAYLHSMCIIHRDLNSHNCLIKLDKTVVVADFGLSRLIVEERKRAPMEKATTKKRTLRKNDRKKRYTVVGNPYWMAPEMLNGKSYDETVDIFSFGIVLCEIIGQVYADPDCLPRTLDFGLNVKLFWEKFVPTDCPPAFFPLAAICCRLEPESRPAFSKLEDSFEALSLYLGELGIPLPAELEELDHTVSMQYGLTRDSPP

CC(=O)C1=C(C)N(c2cccc(C(F)(F)F)c2)C(=O)N[C@@H]1c1ccc(C#N)nc1 [BAY-678]
inactive: residual activity [1] 91.7% | residual activity [2] 84.8% | residual activity [3] 85.7% | inhibition [4] 9.75% | residual activity [5] 98.2% | residual activity [6] 96.7% | residual activity [7] 100% | residual activity [8] 100% | inhibition [9] 7.74% | residual activity [10] 100% | residual activity [11] 92.4% | residual activity [12] 78.2% | residual activity [13] 77.5% | residual activity [14] 100% | residual activity [15] 80.4% | residual activity [16] 100% | residual activity [17] 100% | residual activity [18] 100% | residual activity [19] 100% | residual activity [20] 100% | residual activity [21] 91.2% | residual activity [22] 100% | residual activity [23] 90% | residual activity [24] 78.5% | residual activity [25] 94.6% | residual activity [26] 100% | residual activity [27] 74.5% | residual activity [28] 100% | residual activity [29] 87.5% | residual activity [30] 100% | inhibition [31] 10.5% | residual activity [32] 97.9% | residual activity [33] 100% | residual activity [34] 100% | residual activity [35] 84.1% | residual activity [36] 100% | residual activity [37] 100% | residual activity [38] 100% | residual activity [39] 100% | residual activity [40] 98.8% | residual activity [41] 100% | residual activity [42] 100% | residual activity [43] 100%
